Data reported in PubChem BioAssay AID1259407 (Chemical Carcinogenesis Research Information System (CCRIS), 2018).
Activity calls are given as the source filed them. The rule behind the calls is not given here.

System: CCRIS mutagenicity, Ames/micronucleus/aberration tests
Experiment: CCRIS mutagenicity studies
[1] = Test System: AMES SALMONELLA TYPHIMURIUM, Strain/Indicator: TA98, Metabolic Activation: NONE, Method: PREINCUBATION
[2] = Test System: AMES SALMONELLA TYPHIMURIUM, Strain/Indicator: TA100, Metabolic Activation: NONE, Method: PREINCUBATION
[3] = Test System: AMES SALMONELLA TYPHIMURIUM, Strain/Indicator: TA1535, Metabolic Activation: NONE, Method: PREINCUBATION
[4] = Test System: AMES SALMONELLA TYPHIMURIUM, Strain/Indicator: TA1537, Metabolic Activation: NONE, Method: PREINCUBATION
[5] = Test System: AMES SALMONELLA TYPHIMURIUM, Strain/Indicator: TA98, Metabolic Activation: NONE, Method: STANDARD PLATE
[6] = Test System: AMES SALMONELLA TYPHIMURIUM, Strain/Indicator: TA100, Metabolic Activation: NONE, Method: STANDARD PLATE
[7] = Test System: AMES SALMONELLA TYPHIMURIUM, Strain/Indicator: TA100, Metabolic Activation: RAT, LIVER, S-9, AROCLOR 1254, Method: STANDARD PLATE
[8] = Test System: AMES SALMONELLA TYPHIMURIUM, Strain/Indicator: TA1535, Metabolic Activation: NONE, Method: STANDARD PLATE
[9] = Test System: AMES SALMONELLA TYPHIMURIUM, Strain/Indicator: TA1535, Metabolic Activation: RAT, LIVER, S-9, AROCLOR 1254, Method: STANDARD PLATE
[10] = Test System: AMES SALMONELLA TYPHIMURIUM, Strain/Indicator: TA1537, Metabolic Activation: NONE, Method: STANDARD PLATE

Measured: mutagenic call

C[C@H]1COc2c(N3CCN(C)CC3)c(F)cc3c(=O)c(C(=O)O)cn1c23
inactive: [1] inactive; negative | Test System: AMES SALMONELLA TYPHIMURIUM, Strain/Indicator: TA98, Metabolic Activation: RAT, LIVER, S-9, PHENOBARBITAL AND BETA-NAPHTHOFLAVONE, Method: PREINCUBATION inactive; negative | [2] inactive; negative | Test System: AMES SALMONELLA TYPHIMURIUM, Strain/Indicator: TA100, Metabolic Activation: RAT, LIVER, S-9, PHENOBARBITAL AND BETA-NAPHTHOFLAVONE, Method: PREINCUBATION inactive; negative | [3] inactive; negative | Test System: AMES SALMONELLA TYPHIMURIUM, Strain/Indicator: TA1535, Metabolic Activation: RAT, LIVER, S-9, PHENOBARBITAL AND BETA-NAPHTHOFLAVONE, Method: PREINCUBATION inactive; negative | [4] inactive; negative | Test System: AMES SALMONELLA TYPHIMURIUM, Strain/Indicator: TA1537, Metabolic Activation: RAT, LIVER, S-9, PHENOBARBITAL AND BETA-NAPHTHOFLAVONE, Method: PREINCUBATION inactive; negative | Test System: CHINESE HAMSTER OVARY, Strain/Indicator: CHO-K1 (HGPRT)/6-THIOGUANINE, Metabolic Activation: NONE inactive; negative | Test System: CHINESE HAMSTER OVARY, Strain/Indicator: CHO-K1 (HGPRT)/6-THIOGUANINE, Metabolic Activation: RAT, LIVER, S-9, PHENOBARBITAL AND BETA-NAPHTHOFLAVONE inactive; negative | Test System: E.COLI, Strain/Indicator: WP2 UVRA, Metabolic Activation: NONE, Method: PREINCUBATION inactive; negative | Test System: E.COLI, Strain/Indicator: WP2 UVRA, Metabolic Activation: RAT, LIVER, S-9, PHENOBARBITAL AND BETA-NAPHTHOFLAVONE, Method: PREINCUBATION inactive; negative | Test System: UDS RAT HEPATOCYTES, Strain/Indicator: THY INCORP, Metabolic Activation: NONE, Method: IN VIVO-IN VITRO inactive; negative

O=[N+]([O-])/C=C/c1ccco1
inactive: End Point: IN VITRO MICRONUCLEUS, Test System: HUMAN LYMPHOCYTES, Metabolic Activation: NONE inactive; negative | End Point: IN VITRO MICRONUCLEUS, Test System: HUMAN LYMPHOCYTES, Metabolic Activation: S-9 inactive; negative | End Point: IN VIVO MICRONUCLEUS, Test System: BONE MARROW, Species: MOUSE, Strain/Sex: CD-1/MALE, Route: INTRAPERITONEAL inactive; negative | [1] inactive; negative

O[C@H]([C@H](O)[C@@H](O)CBr)[C@H](O)CBr
active: Test System: AMES SALMONELLA TYPHIMURIUM, Strain/Indicator: TA100, Metabolic Activation: HAMSTER, LIVER, S-9, AROCLOR 1254 (10%), Method: PREINCUBATION active; positive | [2] active; positive | Test System: AMES SALMONELLA TYPHIMURIUM, Strain/Indicator: TA100, Metabolic Activation: RAT, LIVER, S-9, AROCLOR 1254 (10%), Method: PREINCUBATION active; positive | Test System: AMES SALMONELLA TYPHIMURIUM, Strain/Indicator: TA1535, Metabolic Activation: HAMSTER, LIVER, S-9, AROCLOR 1254 (10%), Method: PREINCUBATION active; positive | [3] active; positive | Test System: AMES SALMONELLA TYPHIMURIUM, Strain/Indicator: TA1535, Metabolic Activation: RAT, LIVER, S-9, AROCLOR 1254 (10%), Method: PREINCUBATION active; positive
inactive: Test System: AMES SALMONELLA TYPHIMURIUM, Strain/Indicator: TA98, Metabolic Activation: HAMSTER, LIVER, S-9, AROCLOR 1254 (10%), Method: PREINCUBATION inactive; negative | [1] inactive; negative | Test System: AMES SALMONELLA TYPHIMURIUM, Strain/Indicator: TA98, Metabolic Activation: RAT, LIVER, S-9, AROCLOR 1254 (10%), Method: PREINCUBATION inactive; negative | Test System: AMES SALMONELLA TYPHIMURIUM, Strain/Indicator: TA1537, Metabolic Activation: HAMSTER, LIVER, S-9, AROCLOR 1254 (10%), Method: PREINCUBATION inactive; negative | [4] inactive; negative | Test System: AMES SALMONELLA TYPHIMURIUM, Strain/Indicator: TA1537, Metabolic Activation: RAT, LIVER, S-9, AROCLOR 1254 (10%), Method: PREINCUBATION inactive; negative

Cc1cc(Cl)ccc1OCC(=O)O
inactive: Test System: AMES SALMONELLA TYPHIMURIUM, Strain/Indicator: TA97, Metabolic Activation: NONE, Method: STANDARD PLATE inactive; negative | Test System: AMES SALMONELLA TYPHIMURIUM, Strain/Indicator: TA97, Metabolic Activation: RAT, LIVER, S-9, AROCLOR 1254, Method: STANDARD PLATE inactive; negative | Test System: AMES SALMONELLA TYPHIMURIUM, Strain/Indicator: TA97A, Metabolic Activation: NONE, Method: STANDARD PLATE inactive; negative | Test System: AMES SALMONELLA TYPHIMURIUM, Strain/Indicator: TA97A, Metabolic Activation: RAT, LIVER, S-9, AROCLOR 1254, Method: STANDARD PLATE inactive; negative | [5] inactive; negative | Test System: AMES SALMONELLA TYPHIMURIUM, Strain/Indicator: TA98, Metabolic Activation: RAT, LIVER, S-9, AROCLOR 1254, Method: STANDARD PLATE inactive; negative | [6] inactive; negative | [7] inactive; negative | Test System: AMES SALMONELLA TYPHIMURIUM, Strain/Indicator: TA102, Metabolic Activation: NONE, Method: STANDARD PLATE inactive; negative | Test System: AMES SALMONELLA TYPHIMURIUM, Strain/Indicator: TA102, Metabolic Activation: RAT, LIVER, S-9, AROCLOR 1254, Method: STANDARD PLATE inactive; negative | [8] inactive; negative | [9] inactive; negative | [10] inactive; negative | Test System: AMES SALMONELLA TYPHIMURIUM, Strain/Indicator: TA1537, Metabolic Activation: RAT, LIVER, S-9, AROCLOR 1254, Method: STANDARD PLATE inactive; negative | Test System: AMES SALMONELLA TYPHIMURIUM, Strain/Indicator: TA1538, Metabolic Activation: NONE, Method: STANDARD PLATE inactive; negative | Test System: AMES SALMONELLA TYPHIMURIUM, Strain/Indicator: TA1538, Metabolic Activation: RAT, LIVER, S-9, AROCLOR 1254, Method: STANDARD PLATE inactive; negative

N[C@@H](Cc1ccc(N(CCCl)CCCl)cc1)C(=O)O
active: End Point: In vivo chromosomal aberrations, Test System: Bone marrow cells, Species: Mouse, Strain/Sex: C57B1/6 / Female (base p53+/-), Route: Oral (gavage) active; positive | End Point: In vivo chromosomal aberrations, Test System: Splenocytes, Species: Mouse, Strain/Sex: C57B1/6 / Female (base p 53+/-), Route: Oral (gavage) active; positive | Test System: AMES SALMONELLA TYPHIMURIUM, Strain/Indicator: TA100, Metabolic Activation: HAMSTER, LIVER, S-9, AROCLOR 1254 (30%), Method: PREINCUBATION active; positive | [2] active; positive | [6] active; positive | Test System: AMES SALMONELLA TYPHIMURIUM, Strain/Indicator: TA100, Metabolic Activation: RAT, LIVER, S-9, AROCLOR 1254 (30%), Method: PREINCUBATION active; positive | [7] active; positive | [8] active; positive | [9] active; positive
inactive: [5] inactive; negative | Test System: AMES SALMONELLA TYPHIMURIUM, Strain/Indicator: TA98, Metabolic Activation: RAT, LIVER, S-9, AROCLOR 1254 (30%), Method: PREINCUBATION inactive; negative | [10] inactive; negative | Test System: E. COLI, Strain/Indicator: WP2 (HCR), Metabolic Activation: S-9, Method: STANDARD PLATE inactive; negative

Cc1c(N)nc(C(CC(N)=O)NCC(N)C(N)=O)nc1C(=O)NC(C(=O)NC(C)C(O)C(C)C(=O)NC(C(=O)NCCc1nc(-c2nc(C(=O)O)cs2)cs1)C(C)O)C(OC1OC(CO)C(O)C(O)C1OC1OC(CO)C(O)C(OC(N)=O)C1O)c1cnc[nH]1 (centres undefined)
inactive: Test System: AMES SALMONELLA TYPHIMURIUM, Strain/Indicator: TA102, Metabolic Activation: NONE, Method: PREINCUBATION inactive; negative
